Measured values: patent US20260193171A1, “PHARMACEUTICAL SALT OF POLYAMINE DERIVATIVE, CRYSTAL FORM THEREOF, AND PREPARATION METHOD THEREFOR” (WUHAN WUYAO SCI & TECH CO., LTD, priority 2022, published 2026)
Where two headings read alike, the source gives them in different places.

Tests used:
Type in all cases: physicochemical
[1] = Screening of salt form (salt-forming morphology); conditions: for Salt-forming morphology: free base in ethanol plus acid, room temperature, acid-base molar feeding ratio 1:1 (α, unmarked) or 3:1 (β)
Protocol: The subsequent processing steps were as follows: 1) the turbid system(s) was centrifuged to separate solids; 2) the wall-sticking and gelling system(s) was subjected to cyclic heating and cooling treatment at 25-50° C. (the heating and cooling procedure is shown in Table 5) for the purpose of trying to improve the apparent state/obtain solids; 3) the clear or slightly turbid system(s) was magnetically stirred at 5° C. for about 5 h, and then left to stand at −20° C. overnight for the purpose of trying to collect a sufficient amount of solids for subsequent characterization, and if the amount of solids was still low, slow volatilization at room temperature was performed; if the system(s) was still clear ultimately, anti-solvent addition (n-heptane) or slow volatilization at room temperature was performed. The solids obtained above were centrifuged.

[2] = Determination of hygroscopicity (Chinese Pharmacopoeia 2015); conditions: 25° C., 80% RH, 24 h; for Hygroscopicity (%): weight gain
Protocol: The hygroscopicity was determined by referring to the guiding principle of the hygroscopicity test of medicaments in the Phamacopoeia of the People's Republic of China 2015 Edition. The specific test method is as follows: • 1. taking a dried glass weighing bottle with a stopper (outside diameter: 50 mm, height: 15 mm) and placing in a suitable 25° C.±1° C. thermostatic dryer (with a saturated ammonium chloride or ammonium sulfate solution placed in the lower part) or a climatic cabinet (with temperature set at 25° C.±1° C., and relative humidity set at 80%±2%) one day before the test, and accurately weighing the weight (m1). • 2. taking an appropriate amount of a test sample, spreading it in the weighing bottle described above with a thickness of about 1 mm, and accurately weighing the weight (m2). • 3. opening the weighing bottle, and placing it under constant temperature and humidity conditions for 24 h together with the bottle cap. • 4. covering the weighing bottle, and accurately weighing the weight (m3).
(§1) The stability of the samples were determined by HPLC, and specifically, Agilent 1260 Infinity II LC System (equipped with a DAD detector) was used to collect the purity and solubility data of samples. The hygroscopicity of samples was determined according to the method in the Phamacopoeia of the People's Republic of China, and the specific determination method is shown in section “6. Determination of hygroscopicity” of the specification.

[3] = Dynamic solubility in water and biological vehicles at 37° C.; conditions: for solubility: thermodynamic from solid, 100 rpm, 1/4/24 h, HPLC
Protocol: The phosphate was subjected to dynamic solubility tests in water and 3 biological vehicles (simulated gastric juice SGF, simulated fasting intestinal juice FaSSIF, and simulated feeding intestinal juice FeSSIF) at 37° C., and the specific method for the solubility tests were as follows: four samples of 30 mg each were weighed, and added into 3 mL of water and 3 biological solvents separately, and shaken at a constant temperature of 37° C.
The solubility of the phosphate in water/SGF/FaSSIF/FeSSIF was >9 mg/mL. The solubility of samples was determined by HPLC, and specifically, Agilent 1260 Infinity II LC System (equipped with a DAD detector) was used to collect the purity and solubility data of samples. […] The phosphate had good solubility both in water and simulated in-vivo environment.

[4] = Solid stability test at 25° C./60% RH, chemical purity by HPLC; conditions: for Change in properties and purity on storage: 5 days and 2 weeks; for Purity (peak area, %) 0 day: initial sample; for Stability (judgement in words): room temperature storage
Protocol: The stability of a sample(s) was determined by HPLC, and specifically, Agilent 1260 Infinity II LC System (equipped with a DAD detector) was used to collect the purity and solubility data of the sample(s).
To assess the solid stability of different salts, about 15 mg of a sample was weighed into an HPLC vial, and the vial was opened and placed at 25° C./60% RH. The initial sample and the samples stored for 5 days and 2 weeks were subjected to chemical purity assays (HPLC) and hygroscopicity tests. […] The solid phosphate prepared with an acid-base feeding ratio of 1 or 3 was sampled to measure the acid-base ratio, and the test method for the content of phosphate radical ions is shown in Table 2.
as §1

[5] = Stability of free base left at room temperature
[6] = Crystal form stability of phosphate crystal form A; conditions: 2 weeks
Protocol: The conditions of the X-ray powder diffractometer (XRPD) test were as follows: X-ray powder diffraction data of a sample(s) was collected at ambient conditions using Bruker D2 PHASER X-ray powder diffractometer with an X-ray emitter power of 300 W, a sample stage with no background signal, a step speed of 0.15 s/step, total step of 1837 steps, a step size of 2θ=0.02°, a voltage of 30 kV, and a current of 10 mA. The X-ray tube was a tube of Cu target (Kα) with a Kα2/Kα1 strength ratio of 0.50 (1.54439 Å/1.5406 Å).

[7] = Observation of isolated solid after filtration; conditions: after slurrying with ethyl acetate and filtration, room temperature
Protocol: The solution of phosphoric acid in methanol was slowly and dropwise added to the solution of the free base in methanol. The mixture was reacted under stirring at 0-5° C. for 4 h. Serious wall sticking was observed. After the methanol was concentrated to dryness, the sticky solid on the wall was scraped by a spatula, slurried with ethyl acetate, and then filtered. […] The oil was dried in an oven at 30° C. for 16 h to obtain a solid. The solid was sampled for purity, content, and acid-base ratio tests. The acid-base ratio is the molar amount of phosphoric acid/the molar amount of bis((N-3-aminopropyl)-(N-(3,4-dimethoxyphenylpropionyl)))aminopropylamine, namely the acid-base molar ratio.

[8] = Stability of acid-base ratio on recrystallization in methanol-water or water-methanol; conditions: methanol-water or water-methanol recrystallization system

## Oxalate
[1]
  Salt-forming morphology: Solid
[2]
  Hygroscopicity class: extremely hygroscopic
  Hygroscopicity (%): 18.62%

## COc1ccc(CCC(=O)N(CCCN)CCCNCCCN(CCCN)C(=O)CCc2ccc(OC)c(OC)c2)cc1OC [bis((N-3-aminopropyl)-(N-(3,4-dimethoxyphenylpropionyl)))aminopropylamine phosphate]
[3]; simulated fasting intestinal juice (FaSSIF), fassif, simulated fasting intestinal juice, read-out: Solubility in FaSSIF
  solubility: > 9000 µg/mL
[3]; simulated feeding intestinal juice (FeSSIF), fessif, simulated feeding intestinal juice, read-out: Solubility in FeSSIF
  solubility: > 9000 µg/mL
[3]; simulated gastric juice (SGF), simulated gastric fluid, simulated gastric juice, read-out: Solubility in SGF
  solubility: > 9000 µg/mL
[3]; water, 30 mg in 3 mL, read-out: Solubility in water
  solubility: > 9000 µg/mL
[3]; within 24 h
  pH value change during dynamic solubility test: did not change
[4]; 25° C./60% RH, open vial
  Change in properties and purity on storage: no obvious change in properties and purity
[4]; 25° C./60% RH, open vial, HPLC
  Purity (peak area, %) 0 day: 99.56%
[4]
  Stability (judgement in words): good stability
[2]
  Hygroscopicity class: slightly hygroscopic
  Hygroscopicity (%): 1.29%

## O=C(O)CCC(=O)O [Succinic acid]
[1]
  Salt-forming morphology: Gel*

## bis((N-3-aminopropyl)-(N-(3,4-dimethoxyphenylpropionyl)))aminopropylamine hydrochloride [Hydrochloride^α]
[2]
  Hygroscopicity class: extremely hygroscopic
  Hygroscopicity (%): 24.7%

## O=C(O)c1cc(O)ccc1O [Gentisic acid]
[1]
  Salt-forming morphology: Gel^†

## COc1ccc(CCC(=O)NCCCN(CCCN)CCCNC(=O)CCc2ccc(OC)c(OC)c2)cc1OC [free base, bis((N-3-aminopropyl)-(N-(3,4-dimethoxyphenylpropionyl)))aminopropylamine]
[5]; initial
  Purity before storage: 97.56%
[5]; room temperature, 7 days
  Purity after left at room temperature for 7 days: 73.73%

## Cc1ccc(S(=O)(=O)O)cc1 [p-Toluene sulfonic acid]
[1]
  Salt-forming morphology: Gel*

## O=C(O)CNC(=O)c1ccccc1 [Hippuric acid]
[1]
  Salt-forming morphology: Oil^#

## CS(=O)(=O)O [Methanesulfonic acid]
[1]
  Salt-forming morphology: Gel*

## O=C(O)[C@H](O)[C@@H](O)C(=O)O [L-tartaric acid]
[1]
  Salt-forming morphology: Solid^※
[1]; sealed, 1 week
  State of solid after being sealed and placed at room temperature: gelled

## O=C(O)/C=C\C(=O)O [Maleic acid]
[1]
  Salt-forming morphology: Gel^#

## COc1ccc(CCC(=O)N(CCCN)CCCNCCCN(CCCN)C(=O)CCc2ccc(OC)c(OC)c2)cc1OC [Example 7, bis((N-3-aminopropyl)-(N-(3,4-dimethoxyphenylpropionyl)))aminopropylamine phosphate]
[6]; 25° C./60% RH
  Change in crystal form after storage: no change in crystal form
[6]; 60° C.
  Change in crystal form after storage: no change in crystal form
[6]; 80° C.
  Change in crystal form after storage: no change in crystal form
[6]; illumination
  Change in crystal form after storage: no change in crystal form

## O=C(O)c1ccccc1 [Benzoic acid]
[1]
  Salt-forming morphology: Oil^#

## COc1ccc(CCC(=O)NCCCN(CCCN)CCCNC(=O)CCc2ccc(OC)c(OC)c2)cc1OC.O=P(O)(O)O [Comparative Example 1, bis((N-3-aminopropyl)-(N-(3,4-dimethoxyphenylpropionyl)))aminopropylamine phosphate]
[7]
  Hygroscopic behaviour of solid after filtration: extremely hygroscopic and quickly turned into an oil

## O=C(O)/C=C/C(=O)O [Fumaric acid]
[1]
  Salt-forming morphology: Gel^#

## bis((N-3-aminopropyl)-(N-(3,4-dimethoxyphenylpropionyl)))aminopropylamine phosphate
[4]; 25° C./60% RH, open vial, 2 weeks, HPLC
  Purity (peak area, %) 2 weeks: 99.24%
[4]; 25° C./60% RH, open vial
  Change in properties and purity on storage: change into liquid from powdery solid
[4]; 25° C./60% RH, open vial, 5 days, HPLC
  Purity (peak area, %) 5 days: 99.41%
[4]; 25° C./60% RH, open vial, HPLC
  Purity (peak area, %) 0 day: 99.45%
[4]
  Stability (judgement in words): poor stability
[8]
  Change of acid-base ratio after recrystallization: more than 10%
[2]
  Hygroscopicity class: extremely hygroscopic
  Hygroscopicity (%): 18.05%
